Values belong to the compound of their own block, whether it stands above or below them. The source made the active and inactive calls. The rule behind the calls is not given here.
How the values were obtained:
[1] = molecular target: Leucine--tRNA ligase, cytoplasmic (Homo sapiens) (UniProt Q9P2J5); test: Inhibition of leucyl-tRNA synthetase (unknown origin) expressed in HEK293 cells assessed as inhibition of leucine-induced mTORC1-mediated S6 kinase phosphorylation pre-treated at 1 mM followed by leucine stimulation for 10 mins by immunoblotting analysis; type: cell-based
[2] = molecular target: Leucine--tRNA ligase, cytoplasmic (Homo sapiens) (UniProt Q9P2J5); test: Inhibition of leucyl-tRNA synthetase (unknown origin) catalytic activity assessed as aminoleucylation
HEK293 [3] = test: Effect on cellular Akt level in HEK293 cells pre-treated at 100 nM to 800 uM followed by leucine stimulation for 10 mins by immunoblotting analysis; type: cell-based; conditions: human
HEK293 [4] = test: Inhibition of mTORC2 (unknown origin) expressed in HEK293 cells assessed as inhibition of leucine-induced Akt S473 phosphorylation pre-treated at 100 nM to 800 uM followed by leucine stimulation for 10 mins by immunoblotting analysis; type: cell-based; conditions: Homo sapiens
[5] = molecular target: Leucine--tRNA ligase, cytoplasmic (Homo sapiens) (UniProt Q9P2J5); test: Inhibition of leucyl-tRNA synthetase (unknown origin) expressed in HEK293 cells assessed as inhibition of leucine-induced mTORC1-mediated S6 kinase phosphorylation pre-treated with compound followed by leucine stimulation for 10 mins by immunoblotting analysis; type: cell-based
SW-620 [6] = test: Cytotoxicity against rapamycin resistant human SW620 cells by CellTox green fluorescent dye based assay; type: functional, cell-based
SW-620 [7] = test: Cytotoxicity against rapamycin resistant human SW620 cells at 400 uM to 4 mM by CellTox green fluorescent dye based assay; type: functional, cell-based
HEK293 [8] = test: Inhibition of mTORC2 (unknown origin) expressed in HEK293 cells assessed as inhibition of leucine-induced Akt S473 phosphorylation pre-treated at 800 uM followed by leucine stimulation for 10 mins by immunoblotting analysis; type: cell-based; conditions: Homo sapiens
HEK293 [9] = test: Effect on cellular Akt level in HEK293 cells pre-treated at 800 uM followed by leucine stimulation for 10 mins by immunoblotting analysis; type: ADME, cell-based; conditions: human, hek293, 800 µM
[10] = molecular target: Leucine--tRNA ligase, cytoplasmic (Homo sapiens) (UniProt Q9P2J5); test: Inhibition of leucyl-tRNA synthetase (unknown origin) expressed in HEK293 cells assessed as inhibition of leucine-induced mTORC1-mediated S6 kinase phosphorylation pre-treated at 800 uM followed by leucine stimulation for 10 mins by immunoblotting analysis; type: cell-based
[11] = molecular target: Leucine--tRNA ligase, cytoplasmic (Homo sapiens) (UniProt Q9P2J5); test: Inhibition of leucyl-tRNA synthetase (unknown origin) expressed in HEK293 cells assessed as inhibition of leucine-induced mTORC1-mediated S6 kinase phosphorylation pre-treated at 100 nM followed by leucine stimulation for 10 mins by immunoblotting analysis; type: cell-based
SW-620 [12] = test: Cytotoxicity against rapamycin resistant human SW620 cells at 1 uM by CellTox green fluorescent dye based assay; type: functional, cell-based
HEK293 [13] = test: Effect on cellular Akt level in HEK293 cells pre-treated at 100 nM followed by leucine stimulation for 10 mins by immunoblotting analysis; type: ADME, cell-based; conditions: human, hek293, 0.1 µM
HEK293 [14] = test: Inhibition of mTORC2 (unknown origin) expressed in HEK293 cells assessed as inhibition of leucine-induced Akt S473 phosphorylation pre-treated at 100 nM followed by leucine stimulation for 10 mins by immunoblotting analysis; type: cell-based; conditions: Homo sapiens

Chain of Leucine--tRNA ligase, cytoplasmic (Homo sapiens) (Q9P2J5 whole entry, looked up): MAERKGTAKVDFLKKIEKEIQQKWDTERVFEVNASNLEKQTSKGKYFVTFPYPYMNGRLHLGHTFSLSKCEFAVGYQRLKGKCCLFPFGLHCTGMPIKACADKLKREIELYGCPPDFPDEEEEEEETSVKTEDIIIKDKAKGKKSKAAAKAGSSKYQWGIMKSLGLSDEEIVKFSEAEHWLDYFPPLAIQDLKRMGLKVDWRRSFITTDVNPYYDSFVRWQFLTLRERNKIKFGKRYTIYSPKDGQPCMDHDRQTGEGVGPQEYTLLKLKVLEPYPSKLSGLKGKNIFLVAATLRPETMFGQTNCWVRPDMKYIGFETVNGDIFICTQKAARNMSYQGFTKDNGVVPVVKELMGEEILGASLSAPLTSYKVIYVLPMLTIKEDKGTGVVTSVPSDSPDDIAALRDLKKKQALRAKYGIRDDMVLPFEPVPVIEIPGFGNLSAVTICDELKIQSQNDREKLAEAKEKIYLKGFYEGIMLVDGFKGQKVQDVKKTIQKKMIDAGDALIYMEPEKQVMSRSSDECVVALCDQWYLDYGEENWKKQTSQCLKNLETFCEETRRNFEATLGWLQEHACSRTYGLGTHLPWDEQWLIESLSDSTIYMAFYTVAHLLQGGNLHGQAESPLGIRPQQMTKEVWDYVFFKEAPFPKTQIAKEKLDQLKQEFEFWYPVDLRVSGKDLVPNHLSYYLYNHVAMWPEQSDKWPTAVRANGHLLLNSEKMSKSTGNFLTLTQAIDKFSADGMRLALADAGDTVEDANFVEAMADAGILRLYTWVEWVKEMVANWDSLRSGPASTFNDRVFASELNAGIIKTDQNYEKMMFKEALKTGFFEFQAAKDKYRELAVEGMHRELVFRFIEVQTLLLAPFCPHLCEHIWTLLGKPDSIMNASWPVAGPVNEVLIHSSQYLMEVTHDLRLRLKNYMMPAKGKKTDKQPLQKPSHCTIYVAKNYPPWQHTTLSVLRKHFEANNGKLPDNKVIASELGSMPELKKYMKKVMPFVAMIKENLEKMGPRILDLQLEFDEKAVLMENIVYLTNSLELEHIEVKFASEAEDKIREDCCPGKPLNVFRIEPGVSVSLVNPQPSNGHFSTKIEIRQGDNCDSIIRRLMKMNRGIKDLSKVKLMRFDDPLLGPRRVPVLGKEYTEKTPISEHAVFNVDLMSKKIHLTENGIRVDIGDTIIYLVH

Structure (SMILES): CC(C)C[C@H]1CNC(=O)N1
- inhibition [1]: Active
- inhibition [2]: inactive
- Activity (HEK293 [3]): Non-toxic
- inhibition (HEK293 [4]): inactive
- inhibition [5]: Dose-dependent effect
- Activity (SW-620 [6]): Dose-dependent effect

Structure (SMILES): CC(C)C[C@H](N)COS(C)(=O)=O
- inhibition [1]: inactive

Structure (SMILES): CC(C)C[C@H](N)CN
- inhibition [1]: inactive

Structure (SMILES): CC(C)C[C@H]1COC(=O)N1
- inhibition [1]: Active
- Activity (HEK293 [3]): Non-toxic
- inhibition (HEK293 [4]): inactive
- inhibition [5]: Dose-dependent effect

Structure (SMILES): CC(C)C[C@H](N)CO
- Activity (SW-620 [7]): Active
- inhibition [1]: Active
- inhibition (HEK293 [8]): inactive
- Activity (HEK293 [9]): Non-toxic
- inhibition [10]: Active

Structure (SMILES): CC(C)C[C@H](N)CCO
- inhibition [1]: inactive

Structure (SMILES): CC(C)C[C@H](N)[C@@H](C)O
- inhibition [1]: inactive

Structure (SMILES): CC(C)C[C@H](N)CNS(C)(=O)=O
- inhibition [1]: inactive

More lines, main results first:

- inhibition [1]: inactive
Structure (SMILES): COC[C@@H](N)CC(C)C

- inhibition [1]: inactive
Structure (SMILES): CC(C)C[C@H](N)[C@H](C)O

- inhibition [1]: inactive
Structure (SMILES): CC(C)C[C@H](N)/C=N/O

- inhibition [1]: Active
- inhibition [2]: inactive
- inhibition [5]: Dose-dependent effect
Structure (SMILES): CC(C)Cc1ncc[nH]1
- Activity (HEK293 [3]): Non-toxic
- inhibition (HEK293 [4]): inactive

- inhibition [1]: inactive
Structure (SMILES): CC(=O)NC[C@@H](N)CC(C)C

- inhibition [11]: Active
Structure (SMILES): CO[C@H]1C[C@@H]2CC[C@@H](C)[C@@](O)(O2)C(=O)C(=O)N2CCCC[C@H]2C(=O)O[C@H]([C@H](C)C[C@@H]2CC[C@@H](O)[C@H](OC)C2)CC(=O)[C@H](C)/C=C(\C)[C@@H](O)[C@@H](OC)C(=O)[C@H](C)C[C@H](C)/C=C/C=C/C=C/1C [SIROLIMUS]
- Activity (SW-620 [12]): inactive
- Activity (HEK293 [13]): Non-toxic
- inhibition (HEK293 [14]): inactive

- inhibition [1]: Active
- inhibition [5]: Dose-dependent effect
Structure (SMILES): CC(C)C[C@H](N)CNO
- Activity (HEK293 [3]): Non-toxic
- inhibition (HEK293 [4]): inactive

- inhibition [1]: inactive
Structure (SMILES): CC(C)C[C@H](N)CCN

Source: ChEMBL document CHEMBL3808272, “Discovery of (S)-4-isobutyloxazolidin-2-one as a novel leucyl-tRNA synthetase (LRS)-targeted mTORC1 inhibitor” (Bioorg Med Chem Lett, 2016)
